Among the data in patent US12239711B2, “Cereblon ligands and bifunctional compounds comprising the same” (Arvinas Operations, Inc., priority 2014, dated 2025) are IC50, Dmax and DC50 values, retold here.

Test [1] has as its system estrogen responsive element/promoter/luciferase reporter gene. Kind of test: ERE Luciferase Assay in T47D-KBluc cells. Format: cell-based, human. The conditions noted are these: Homo sapiens, 24 hours, luciferase activity, read-out: Target Engagement IC50. How it is done: 1. ERE Luciferase Assay for Compounds in Table 5.
T47D-KBluc cells (ATCC® #CRL_2865, T47D human breast cancer cells stably transfected with estrogen responsive element/promoter/luciferase reporter gene) were seeded into 96-well white opaque plates in RPMI growth medium supplemented with 10% fetal bovine serum (FBS) and allowed to adhere overnight in a 37° C. humidified incubator. The following day, cells were treated with PROTACs in a 12-point concentration curve (top final concentration of 300 nM with subsequent concentrations being 3-fold less with 2 pM being the lowest concentration in the assay). Each PROTAC was tested independently in two experiments on 96-well plates. After 24 hours, media was removed and lysis buffer was added to the wells. Following lysis, Bright-Glo™ Luciferase Assay Substrate (Promega, Madison WI) was added and the luciferase activity was measured using a Cytation 3 plate reader (BioTek™, Winooski, VT). Each compound was assayed in duplicate and the activity was calculated as IC50 using GraphPad Prism software (San Diego, CA).

In test [2] the target is T1, Estrogen Receptor-Alpha (ERα) (Homo sapiens, UniProt P03372).
T1 construct: endogenous in cells; host or cells: MCF-7 (MCF7) cells
T1 sequence (P03372 1-595): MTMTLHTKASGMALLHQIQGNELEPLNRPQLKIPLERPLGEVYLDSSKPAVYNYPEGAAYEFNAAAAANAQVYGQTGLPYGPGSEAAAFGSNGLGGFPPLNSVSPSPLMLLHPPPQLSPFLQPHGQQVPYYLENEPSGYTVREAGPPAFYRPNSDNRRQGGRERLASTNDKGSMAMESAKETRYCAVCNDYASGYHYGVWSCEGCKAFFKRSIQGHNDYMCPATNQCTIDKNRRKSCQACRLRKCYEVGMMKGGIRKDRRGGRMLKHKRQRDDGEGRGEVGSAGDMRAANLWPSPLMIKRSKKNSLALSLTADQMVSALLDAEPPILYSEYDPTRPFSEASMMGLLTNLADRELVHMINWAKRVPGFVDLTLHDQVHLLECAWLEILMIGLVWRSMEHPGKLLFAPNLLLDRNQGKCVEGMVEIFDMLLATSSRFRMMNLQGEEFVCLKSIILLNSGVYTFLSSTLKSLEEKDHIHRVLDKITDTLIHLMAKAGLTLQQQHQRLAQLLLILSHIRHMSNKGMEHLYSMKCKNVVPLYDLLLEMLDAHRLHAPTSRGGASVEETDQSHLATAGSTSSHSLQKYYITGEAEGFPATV
Kind of test: Estrogen Receptor-Alpha (ERα) degradation assay in MCF-7 cells (western blot / In-Cell Western). Format: cell-based. The conditions noted are these: for Dmax: MCF7, read-out: ER Dmax; for DC50: read-out: ER DC50. The procedure: 2. Estrogen Receptor-Alpha (ERα) Degradation Assay in MCF-7 Cells Using Western Blot Method for Table 5.
The exemplary novel ERα degraders were assessed for their activity in degrading ERα in MCF-7 cells via western blot. The assay was carried out in the presence of 10% FBS or high percentage of human or mouse serum. Protocols of the western blot assay are described below.
MCF7 cells were grown in DMEM/F12 with 10% FBS and seeded at 24,000 cells per well in 100 μl into 96-well clear tissue culture plates. The following day, the cells were treated with PROTACs in a […] concentration curve with 100 nM being the top concentration and serial dilutions to make the other concentrations (30 nM, 10 nM, 3 nM, 1 nM, and 0.3 nM). At all concentrations, 0.01% DMSO is the final concentration in the well. The following day, the plates are aspirated, washed with 50 μl of cold PBS. The cells are lysed with 50 μl/well 4° C. Cell Lysis Buffer (Catalog #9803; Cell Signaling Technology, Danvers, MA) (20 mM Tris-HCL (pH 7.5), 150 mM NaCl, 1 mM Na2EDTA, 1 mM EGTA, 1% Triton, 2.5 mM sodium pyrophosphate, 1 mM B-glycerophosphate, 1 mM sodium vanadate, 1 ug/ml leupeptin). Lysates were clarified at 16,000×g for 10 minutes, and 2 μg of protein was subjected to SDS-PAGE analysis and followed by immunoblotting according to standard protocols. The antibodies used were ERα (Cell Signaling Technologies Catalog #8644), and Tubulin (Sigma Catalog #T9026; St. Louis, MO). Detection reagents were Clarity Western ECL substrate (Bio-Rad Catalog #170-5060; Hercules, CA).
Alternatively, MCF7 cells were grown in DMEM/F12 with 10% FBS and seeded at 24,000 cells per well in 500 μl in 24-well clear tissue culture plates. The following day, the cells were treated with PROTACs in a 5-point concentration curve (100 nM, 33 nM, 11 nM, 3.7 nM, and 1.2 nM) in the presence of 0.01% DMSO. After 72 hours, the wells are aspirated and washed with 500 μl of PBS. The cells are lysed with 100 μl/well 4° C. Cell Lysis Buffer (Catalog #9803; Cell Signaling Technology, Danvers, MA) (20 mM Tris-HCL (pH 7.5), 150 mM NaCl, 1 mM Na2EDTA, 1 mM EGTA, 1% Triton, 2.5 mM sodium pyrophosphate, 1 mM B-glycerophosphate, 1 mM sodium vanadate, 1 ug/ml leupeptin). Lysates were clarified at 16,000×g for 10 minutes, and 2 μg of protein was subjected to SDS-PAGE analysis and followed by immunoblotting according to standard protocols. The antibodies used were ERα (Cell Signaling Technologies Catalog #8644), and Tubulin (Sigma Catalog #T9026; St. Louis, MO). Detection reagents were Clarity Western ECL substrate (Bio-Rad Catalog #170-5060; Hercules, CA).
3. Estrogen Receptor-Alpha (ERα) Degradation Assay Using In-Cell Western™ Assay for Table 5.
Degradation of ERα by claimed compounds were determined in MCF7 cells using an In-Cell Western™ assay. Briefly, MCF7 cells were plated in 96-well plates (2000 cells per well in 100 μl media) and incubated at 37° C. under an atmosphere of 5% CO2 in a humidified incubator overnight. One-hundred (100) μl of media containing test compound (at 2× concentration) was added to the appropriate wells to provide 11 serially decreasing concentrations (top final concentration, 1 μM then 3-fold less for the next 10 concentrations); a vehicle control (DMSO) was also added for each compound. For each experiment, all compounds were assayed in duplicate plates. Cells were then incubated for 3 or 5 days in the above-mentioned environment. The assay was terminated by removal of media, a single wash with ice-cold PBS and the addition of 50 μl paraformaldehyde (PFA: 4% in PBS). After 15 minutes in PFA at room temperature, the cells were permeabilized in Tris-phosphate-buffered saline with Tween (0.1%) (TBST) supplemented with Triton X-100 (0.5%) for 15 minutes. Cells were then blocked in BSA (TBST with BSA, 3%) for one hour. […]

With `COc1cc(N2CCN(CCCCCOc3ccc([C@H]4c5ccc(O)cc5CC[C@H]4c4ccccc4)cc3)CC2)cc2c1C(=O)N(C1CCC(=O)NC1=O)C2` (stereo partly drawn) [compound 1, 3-{5-[4-(5-{4-[(1S,2R)-6-hydroxy-2-phenyl-1,2,3,4-tetrahydronaphthalen-1-yl]phenoxy}pentyl)piperazin-1-yl]-7-methoxy-1-oxo-2,3-dihydro-1H-isoindol-2-yl}piperidine-2,6-dione], the IC50 in test [1] amounted to 58.2 nM. Further, in test [2], the Dmax was in the range of 50 to 75% and the DC50 lay within 10 to 100 nM.

On to `COc1cc(N2CCN(CCCCCOc3ccc([C@@H]4c5ccc(O)cc5CC[C@@H]4c4ccccc4)cc3)CC2)cc2c1C(=O)N(C1CCC(=O)NC1=O)C2` (stereo partly drawn) [compound 2, 3-(5-(4-(5-(4-((1R,2S)-6-hydroxy-2-phenyl-1,2,3,4-tetrahydronaphthalen-1-yl)phenoxy)pentyl)piperazin-1-yl)-7-methoxy-1-oxoisoindolin-2-yl)piperidine-2,6-dione], for which the IC50 in test [1] was 0.79 nM. Further, in test [2], the Dmax was not below 75% and the DC50 was in the range of 1 to 10 nM.

Take `COc1c(N2CCN(CCCCCOc3ccc([C@@H]4c5ccc(O)cc5CC[C@@H]4c4ccccc4)cc3)CC2)ccc2c1CN(C1CCC(=O)NC1=O)C2=O` (stereo partly drawn) [compound 3, 3-[5-[4-[5-[4-[(1R,2S)-6-hydroxy-2-phenyl-tetralin-1-yl]phenoxy]pentyl]piperazin-1-yl]-4-methoxy-1-oxo-isoindolin-2-yl]piperidine-2,6-dione]: in test [1], the IC50 worked out at 1.35 nM. In test [2], the Dmax is not below 75% and the DC50 was less than 1 nM.

`COCCOCCOc1c(N2CCN(CCCCCOc3ccc([C@@H]4c5ccc(O)cc5CC[C@@H]4c4ccccc4)cc3)CC2)ccc2c1CN(C1CCC(=O)NC1=O)C2=O` (stereo partly drawn) [compound 4, 3-[5-[4-[5-[4-[(1R,2S)-6-hydroxy-2-phenyl-tetralin-1-yl]phenoxy]pentyl]piperazin-1-yl]-4-[2-(2-methoxyethoxy)ethoxy]-1-oxo-isoindolin-2-yl]piperidine-2,6-dione]: the IC50 in test [1] worked out at 1.42 nM. In test [2], the Dmax is not below 75% and the DC50 was less than 1 nM.

Regarding `COCCOCCOc1c(N2CCN(CC3CCN(c4ccc([C@H]5c6ccc(O)cc6CC[C@H]5c5ccccc5)cc4)CC3)CC2)ccc2c1CN(C1CCC(=O)NC1=O)C2=O` (stereo partly drawn) [compound 5, 3-(5-{4-[(l-{4-[(1S,2R)-6-hydroxy-2-phenyl-1,2,3,4-tetrahydronaphthalen-1-yl]phenyl}piperidin-4-yl)methyl]piperazin-1-yl}-4-[2-(2-methoxyethoxy)ethoxy]-1-oxo-2,3-dihydro-1H-isoindol-2-yl)piperidine-2,6-dione], the 50% inhibitory concentration (IC50) in test [1] is more than 300 nM. Further, the Dmax in test [2] is less than 50%.

Regarding `COCCOCCOc1c(N2CCN(CC3CCN(c4ccc([C@@H]5c6ccc(O)cc6CC[C@@H]5c5ccccc5)cc4)CC3)CC2)ccc2c1CN(C1CCC(=O)NC1=O)C2=O` (stereo partly drawn) [compound 6, 3-(5-{4-[(1-{4-[(1R,2S)-6-hydroxy-2-phenyl-1,2,3,4-tetrahydronaphthalen-l-yl]phenyl}piperidin-4-yl)methyl]piperazin-1-yl}-4-[2-(2-methoxyethoxy)ethoxy]-1-oxo-2,3-dihydro-1H-isoindol-2-yl)piperidine-2,6-dione], in test [1], the IC50 was 2.18 nM. Further, the Dmax in test [2] was less than 50%.

`COCCOCCOc1c(CCN2CCCN(CCCCOc3ccc([C@H]4c5ccc(O)cc5CC[C@H]4c4ccccc4)cc3)CC2)ccc2c1CN([C@H]1CCC(=O)NC1=O)C2=O` [compound 7, (3S)-3-(5-{2-[4-(4-{4-[(1S,2R)-6-hydroxy-2-phenyl-1,2,3,4-tetrahydronaphthalen-1-yl]phenoxy}butyl)-1,4-diazepan-1-yl]ethyl}-4-[2-(2-methoxyethoxy)ethoxy]-1-oxo-2,3-dihydro-1H-isoindol-2-yl)piperidine-2,6-dione]: in test [1], the IC50 came to 102 nM. In addition, in test [2], the Dmax was 50 to 75% and the DC50 was not below 100 nM.

Regarding `COCCOCCOc1c(CCN2CCCN(CCCCOc3ccc([C@@H]4c5ccc(O)cc5CC[C@@H]4c4ccccc4)cc3)CC2)ccc2c1CN([C@H]1CCC(=O)NC1=O)C2=O` [compound 8, (3S)-3-[5-[2-[4-(4-[4-[(1R,2S)-6-hydroxy-2-phenyl-tetralin-1-yl]phenoxy]butyl]-1,4-diazepan-1-yl]ethyl]-4-[2-(2-methoxyethoxy)ethoxy]-1-oxo-isoindolin-2-yl]piperidine-2,6-dione], the IC50 in test [1] was 0.34 nM. Besides, in test [2], the Dmax fell in the range of 50 to 75% and the DC50 fell in the range of 1 to 10 nM.

Regarding `COc1cc(N2CCN(CCC3CCN(c4ccc([C@H]5c6ccc(O)cc6CC[C@H]5c5ccccc5)cc4)CC3)CC2)cc2c1C(=O)N(C1CCC(=O)NC1=O)C2` (stereo partly drawn) [compound 9, 3-(5-{4-[2-(1-{4-[(1S,2R)-6-hydroxy-2-phenyl-1,2,3,4-tetrahydronaphthalen-1-yl]phenyl}piperidin-4-yl)ethyl]piperazin-1-yl}-7-methoxy-1-oxo-2,3-dihydro-1H-isoindol-2-yl)piperidine-2,6-dione], the IC50 in test [1] is more than 300 nM. Further, in test [2], the Dmax lay within 50 to 75% and the DC50 is not below 100 nM.

With `COc1cc(N2CCN(CCC3CCN(c4ccc([C@@H]5c6ccc(O)cc6CC[C@@H]5c5ccccc5)cc4)CC3)CC2)cc2c1C(=O)N(C1CCC(=O)NC1=O)C2` (stereo partly drawn) [compound 10, 3-[5-[4-[2-[1-[4-[(1R,2S)-6-hydroxy-2-phenyl-tetralin-1-yl]phenyl]-4-piperidyl]ethyl]piperazin-1-yl]-7-methoxy-1-oxo-isoindolin-2-yl]piperidine-2,6-dione], the IC50 in test [1] is 0.86 nM. Moreover, in test [2], the Dmax was not below 75% and the DC50 is 1 to 10 nM.

In the case of `COc1cc(N2CCN(CC3CCN(c4ccc([C@H]5c6ccc(O)cc6CC[C@H]5c5ccccc5)cc4)CC3)CC2)cc2c1C(=O)N(C1CCC(=O)NC1=O)C2` (some centres unmarked) [compound 31], in test [2], the Dmax was less than 50%.
